Data: US9901592B2 (priority 2008, dated 2018)
≈ marks a conversion by molar mass, not a printed value. Read-outs that look alike come from different tables or passages of the source.

What was measured:
M. fermentans = assay type: cell-based; conditions: M. fermentans (15 isolates)
U. urealyticum = assay: MIC testing in 10B broth (colour change); assay type: cell-based; conditions: U. urealyticum (10 isolates)
[1] = system: intraphagocytic L. pneumophila ATCC 33153 (THP-1); assay type: cell-based; conditions: L. pneumophila ATCC 33153, 48 h
S. pneumoniae [2] = assay: MIC of the strains of the mouse systemic infection model; assay type: cell-based; conditions: Streptococcus pneumoniae
S. pneumoniae [3] = assay: mouse subcutaneous abscess model; assay type: in vivo; conditions: for average log10 CFU/gram of abscess: S. pneumoniae 1629, 10 mg/Kg PO
Experimental: Example. Efficacy was evaluated in several infection models. […] PD50s were determined 24 hr post infection. CEM-101 was further evaluated in a subcutaneous abscess mouse model against S. pneumoniae. CD-1 female mice were infected via SC injection of bacteria mixed with cyclodextran beads. Two hr post infection, mice received a single oral dose of CEM 101 or control agents. At 48 hr post dose, mice were euthanized, abscesses aseptically removed and bacteria enumerated. CFU per abscess was determined and compared to the untreated control. […] 24 hr post treatment, the thighs were processed and CFU/gram of thigh determined.
(§1) Example. Mouse Subcutaneous Abscess. Bacteria were prepared from an overnight plate culture by re-suspending in saline and adjusting the suspension to a 0.1 OD at 625 nm of a 1:10 dilution. The adjusted bacterial suspension was mixed 1:2 with cyclodextran beads prepared as per package instructions. The right flanks of the mice were shaven and injected subcutaneously with 0.2 ml of the bacterial inoculum. Two hours post infection mice were treated via oral gavage with either test article or control drug. 48 hours post infection, mice were euthanized, abscesses aseptically removed, homogenized, serially diluted and plated on bacterial growth agar. After overnight incubation, colonies were counted and CFUs/gram of abscess were determined.
Example. The ability of CEM101 to reduce the microbial load in abscess infection model was also assessed against S. pneumoniae isolates.

S. pyogenes ATCC 8668 = assay: mouse subcutaneous abscess model; assay type: in vivo; conditions: 48 hr. post infection
Experimental: as §1
Example. Mouse Subcutaneous Abscess˜S. pyogenes ATCC 8668 (Average Log10 CFU/gram of Abscess). Abscess processing 48 hours post infection.

S. pneumoniae [4] = assay: neutropenic mouse thigh infection; assay type: in vivo; conditions: PO
Experimental: Example. Neutropenic Mouse Thigh Infection. Mice were rendered neutropenic with IP injections of cyclophosamide at day −4 and day −1 of 150 mg/Kg and 100 mg/Kg, respectively. On day 0 mice were infected with approximately 5×10^5 CFU/ml of bacteria in a 0.1 ml volume into the right thigh. At 1.5 hours post infection mice received treatment via oral gavage. One group of infected mice were euthanized and thigh processed for bacterial titers to serve as T=0 controls. Twenty-four hours post treatment, the remaining mice were euthanized, thighs aseptically removed, weighed, homogenized, serially diluted and plated on bacterial growth media. CFUs per gram of thigh were calculated after overnight incubation of bacterial plates. The amount of test article required to achieve 1, 2, and 3 loge reductions from 24 hour control thighs were calculated. Additional studies were performed that fractionated the single treatment dose (Q24) into two (Q12), three (Q8) and four (Q6) equivalent doses to determine the pharmacodynamic nature of this compound. Further analysis includes static dose, EC50, 1 log kill and maximal effect (Emax).

M. catarrhalis = assay: microbe, parasite or virus in culture; assay type: cell-based
streptococci = assay: organism not typed; assay type: cell-based
S. pneumoniae [5] = assay: neutropenic mouse thigh infection; assay type: in vivo; conditions: PO; remark: listed apart in the source

CC[C@H]1OC(=O)[C@@](C)(F)C(=O)[C@H](C)[C@@H](OC2OC(C)CC(N(C)C)C2O)[C@@](C)(OC)C[C@@H](C)C(=O)[C@H](C)[C@H]2N(CCCCn3cc(-c4cccc(N)c4)nn3)C(=O)O[C@]12C (stereo partly drawn) [CEM-101, 11-N-4-(3-aminophenyl)-[1,2,3]triazol-1-yl]-butyl}-5-desosaminyl-3-oxo-2-fluoro-erythronolide A,-11,12-cyclic carbamate]
MIC Range (M. fermentans): ≦0.008 μg/mL | MIC50 (M. fermentans; Mycoplasmopsis fermentans): ≤ 0.008 µg/mL | MIC90 (M. fermentans; Mycoplasmopsis fermentans): ≤ 0.008 µg/mL | MIC Range (U. urealyticum): 0.004 to 0.063 µg/mL | MIC50 (U. urealyticum; Ureaplasma urealyticum): 0.008 µg/mL (≈ 0.00947 µM) | MIC90 (U. urealyticum; Ureaplasma urealyticum): 0.031 µg/mL (≈ 0.0367 µM) | Cs [1]: 4.56 ×MIC | MIC (S. pneumoniae [2]; S. pneumoniae (macrolide susceptible)): < 0.03 µg/mL | MIC (S. pneumoniae [2]; S. pneumoniae (mefR), read-out: MIC): < 0.03 µg/mL | average log10 CFU/gram of abscess (S. pneumoniae [3]; 24 hours): about 3 log10 CFU/gram | average log10 CFU/gram of abscess (S. pneumoniae [3]; 48 hours): about 3 log10 CFU/gram | log decrease of CFU from untreated mice (S. pneumoniae [3]; abscess, 10 mg/Kg QD dose): 4.2 log10 | Average Log10 CFU/gram of Abscess (S. pyogenes ATCC 8668; 10 mg/Kg): 5.35 Log10 CFU/gram | Average Log10 CFU/gram of Abscess (S. pyogenes ATCC 8668; 20 mg/Kg): 2.53 Log10 CFU/gram | Max. change in log10CFUs from 24 hr. controls (S. pneumoniae [4]; S. pneumoniae 1629): −5.81 log10CFUs | Dose for 2 log10 Reduction from 24 hour controls (S. pneumoniae [4]; S. pneumoniae 1629, QD): 7.0 mg/Kg | Max. change in log10CFUs from 24 hr. controls (S. pneumoniae [4]; S. pneumoniae 6303): −6.17 log10CFUs | Emax (S. pneumoniae [4]; S. pneumoniae 6303, Q6): 5.83 log10CFU/thigh | EC50 (S. pneumoniae [4]; S. pneumoniae 6303, Q8): 9.0 mg/kg | EC50 (S. pneumoniae [4]; S. pneumoniae 6303, Q12): 14.5 mg/kg | Emax (S. pneumoniae [4]; S. pneumoniae 6303, Q12): 4.95 log10CFU/thigh | 1 log kill (S. pneumoniae [4]; S. pneumoniae 6303, Q24): 10.8 mg/Kg | EC50 (S. pneumoniae [4]; S. pneumoniae 6303, Q24): 5.7 mg/kg | Occurrences at MIC (μg/ml) 1 (M. catarrhalis): 0 | Occurrences at MIC (μg/ml) 2 (M. catarrhalis): 0 | Occurrences at MIC (μg/ml) 4 (M. catarrhalis): 0 | Occurrences at MIC (μg/ml) 8 (M. catarrhalis): 0 | Occurrences at MIC (μg/ml) […] (M. catarrhalis): 0 | Occurrences at MIC (μg/ml) ≧16 (M. catarrhalis): 0 | MIC50 (M. catarrhalis; Moraxella catarrhalis): 0.12 µg/mL (≈ 0.142 µM) | MIC90 (M. catarrhalis; Moraxella catarrhalis): 0.12 µg/mL (≈ 0.142 µM) | MIC (M. catarrhalis; Moraxella catarrhalis, read-out: Occurrences at MIC (μg/ml) 0.03): 1 µg/mL (≈ 1.18 µM) | MIC (M. catarrhalis; Moraxella catarrhalis, read-out: Occurrences at MIC (μg/ml) 0.06): 5 µg/mL (≈ 5.92 µM) | MIC (M. catarrhalis; Moraxella catarrhalis, read-out: Occurrences at MIC (μg/ml) 0.5): 1 µg/mL (≈ 1.18 µM) | MIC (M. catarrhalis; Moraxella catarrhalis, read-out: Occurrences at MIC (μg/ml) ≦0.008): 1 µg/mL (≈ 1.18 µM) | MIC (streptococci): 0.06 µg/mL (≈ 0.071 µM) | Dose for 1 log10 Reduction from 24 hour controls (S. pneumoniae [5]; S. pneumoniae 1629, QD): 6.0 mg/Kg | Dose for 3 log10 Reduction from 24 hour controls (S. pneumoniae [5]; S. pneumoniae 1629, QD): 8.0 mg/Kg | 1 log kill (S. pneumoniae [5]; S. pneumoniae 6303, Q6): 23.0 mg/Kg | EC50 (S. pneumoniae [5]; S. pneumoniae 6303, Q6): 16.7 mg/kg | Static dose (S. pneumoniae [5]; S. pneumoniae 6303, Q6): 20.5 mg/kg | 1 log kill (S. pneumoniae [5]; S. pneumoniae 6303, Q8): 23.0 mg/Kg | Emax (S. pneumoniae [5]; S. pneumoniae 6303, Q8): 5.01 log10CFU/thigh | Static dose (S. pneumoniae [5]; S. pneumoniae 6303, Q8): 12.1 mg/kg | 1 log kill (S. pneumoniae [5]; S. pneumoniae 6303, Q12): 24.0 mg/Kg | Static dose (S. pneumoniae [5]; S. pneumoniae 6303, Q12): 19.2 mg/kg | Emax (S. pneumoniae [5]; S. pneumoniae 6303, Q24): 6.38 log10CFU/thigh | Static dose (S. pneumoniae [5]; S. pneumoniae 6303, Q24): 8.2 mg/kg | Dose for 1 log10 Reduction from 24 hour controls (S. pneumoniae [5]; S. pneumoniae 6303, QD): 1.2 mg/Kg | Dose for 2 log10 Reduction from 24 hour controls (S. pneumoniae [5]; S. pneumoniae 6303, QD): 3.0 mg/Kg | Dose for 3 log10 Reduction from 24 hour controls (S. pneumoniae [5]; S. pneumoniae 6303, QD): 5.0 mg/Kg
